± gives the expanded uncertainty stated by the source.
Assay: xn = mol fraction of the nth substance listed
Details: for surface tension liquid-gas: Wilhelmy plate method; for viscosity: 101.3 kPa, Liquid, Concentric cylinders viscometry

CCCCCCCCCCO [decan-1-ol] + CN(C)C=O
Details	surface tension liquid-gas, 298.15 K [mN/m]	surface tension liquid-gas, 303.15 K [mN/m]	surface tension liquid-gas, 308.15 K [mN/m]	surface tension liquid-gas, 313.15 K [mN/m]	viscosity, 298.15 K [mPa·s]	viscosity, 303.15 K [mPa·s]	viscosity, 308.15 K [mPa·s]	viscosity, 313.15 K [mPa·s]
x2 = 0	28.35 ± 0.52	27.29 ± 0.52	26.23 ± 0.52	25.17 ± 0.52	11.83 ± 0.25	9.754 ± 0.2	8.135 ± 0.17	6.842 ± 0.14
x2 = 0.2361	28.83 ± 0.52	27.74 ± 0.51	26.67 ± 0.51	25.61 ± 0.51	4.984 ± 0.1	3.776 ± 0.079	2.992 ± 0.062	2.357 ± 0.049
x2 = 0.4193	29.21 ± 0.51	28.08 ± 0.51	26.99 ± 0.51	25.92 ± 0.51	2.622 ± 0.055	1.816 ± 0.038	1.359 ± 0.029	0.9811 ± 0.021
x2 = 0.5688	29.6 ± 0.51	28.43 ± 0.51	27.31 ± 0.51	26.23 ± 0.51	1.623 ± 0.034	1.092 ± 0.023	0.7935 ± 0.017	0.5801 ± 0.013
x2 = 0.6724	30.14 ± 0.51	28.95 ± 0.51	27.82 ± 0.51	26.74 ± 0.51	1.238 ± 0.026	0.8423 ± 0.018	0.6257 ± 0.014	0.47 ± 0.011
x2 = 0.7496	30.78 ± 0.51	29.6 ± 0.51	28.46 ± 0.51	27.38 ± 0.5	1.03 ± 0.022	0.7268 ± 0.016	0.5631 ± 0.013	0.443 ± 0.01
x2 = 0.8185	31.61 ± 0.51	30.43 ± 0.5	29.3 ± 0.5	28.23 ± 0.5	0.9299 ± 0.02	0.7011 ± 0.015	0.5754 ± 0.013	0.479 ± 0.011
x2 = 0.8748	32.48 ± 0.5	31.32 ± 0.5	30.2 ± 0.5	29.15 ± 0.5	0.8732 ± 0.019	0.7131 ± 0.015	0.6216 ± 0.014	0.5385 ± 0.012
x2 = 0.923	33.41 ± 0.5	32.27 ± 0.5	31.15 ± 0.5	30.12 ± 0.5	0.8501 ± 0.018	0.7459 ± 0.016	0.6802 ± 0.015	0.6027 ± 0.013
x2 = 0.9632	34.3 ± 0.5	33.18 ± 0.5	32.07 ± 0.5	31.05 ± 0.5	0.8317 ± 0.018	0.7627 ± 0.016	0.7103 ± 0.015	0.6468 ± 0.014

CCCCCCCCCO [nonan-1-ol] + CN(C)C=O
Details	surface tension liquid-gas, 298.15 K [mN/m]	surface tension liquid-gas, 303.15 K [mN/m]	surface tension liquid-gas, 308.15 K [mN/m]	surface tension liquid-gas, 313.15 K [mN/m]	viscosity, 298.15 K [mPa·s]	viscosity, 303.15 K [mPa·s]	viscosity, 308.15 K [mPa·s]	viscosity, 313.15 K [mPa·s]
x2 = 0	27.58 ± 0.57	26.53 ± 0.57	25.49 ± 0.56	24.44 ± 0.56	9.715 ± 0.22	7.927 ± 0.18	6.664 ± 0.15	5.645 ± 0.13
x2 = 0.2201	28.12 ± 0.55	27.04 ± 0.55	25.98 ± 0.54	24.92 ± 0.54	4.766 ± 0.11	3.633 ± 0.08	2.965 ± 0.065	2.416 ± 0.053
x2 = 0.3969	28.54 ± 0.53	27.42 ± 0.53	26.33 ± 0.53	25.27 ± 0.53	2.715 ± 0.059	1.932 ± 0.042	1.532 ± 0.033	1.196 ± 0.026
x2 = 0.5458	28.97 ± 0.52	27.81 ± 0.52	26.7 ± 0.52	25.62 ± 0.52	1.77 ± 0.038	1.213 ± 0.026	0.9531 ± 0.021	0.7287 ± 0.016
x2 = 0.6515	29.58 ± 0.52	28.39 ± 0.52	27.27 ± 0.51	26.18 ± 0.51	1.373 ± 0.029	0.9494 ± 0.021	0.7597 ± 0.017	0.5913 ± 0.013
x2 = 0.7321	30.3 ± 0.51	29.11 ± 0.51	27.98 ± 0.51	26.9 ± 0.51	1.156 ± 0.025	0.8443 ± 0.018	0.6817 ± 0.015	0.5692 ± 0.013
x2 = 0.8042	31.21 ± 0.51	30.03 ± 0.51	28.9 ± 0.51	27.83 ± 0.51	1.022 ± 0.022	0.7978 ± 0.017	0.6695 ± 0.015	0.5762 ± 0.013
x2 = 0.8644	32.19 ± 0.51	31.02 ± 0.51	29.9 ± 0.51	28.85 ± 0.51	0.9434 ± 0.02	0.7834 ± 0.017	0.6881 ± 0.015	0.6071 ± 0.013
x2 = 0.9168	33.23 ± 0.51	32.08 ± 0.51	30.97 ± 0.5	29.93 ± 0.5	0.8898 ± 0.019	0.7837 ± 0.017	0.7189 ± 0.015	0.6468 ± 0.014
x2 = 0.9596	34.2 ± 0.5	33.07 ± 0.5	31.97 ± 0.5	30.95 ± 0.5	0.8529 ± 0.018	0.7764 ± 0.017	0.727 ± 0.016	0.6663 ± 0.014

CCCCCCCCO [octan-1-ol] + CN(C)C=O
Details	surface tension liquid-gas, 298.15 K [mN/m]	surface tension liquid-gas, 303.15 K [mN/m]	surface tension liquid-gas, 308.15 K [mN/m]	surface tension liquid-gas, 313.15 K [mN/m]	viscosity, 298.15 K [mPa·s]	viscosity, 303.15 K [mPa·s]	viscosity, 308.15 K [mPa·s]	viscosity, 313.15 K [mPa·s]
x2 = 0	27.47 ± 0.52	26.42 ± 0.52	25.41 ± 0.52	24.38 ± 0.52	7.661 ± 0.16	6.402 ± 0.13	5.425 ± 0.11	4.628 ± 0.097
x2 = 0.2198	28.07 ± 0.51	26.98 ± 0.51	25.95 ± 0.51	24.91 ± 0.51	4.082 ± 0.085	3.243 ± 0.068	2.678 ± 0.056	2.2 ± 0.046
x2 = 0.3728	28.37 ± 0.51	27.25 ± 0.51	26.18 ± 0.51	25.13 ± 0.51	2.636 ± 0.055	2.012 ± 0.042	1.646 ± 0.034	1.35 ± 0.028
x2 = 0.5208	28.77 ± 0.51	27.6 ± 0.51	26.5 ± 0.51	25.43 ± 0.51	1.794 ± 0.037	1.355 ± 0.029	1.106 ± 0.023	0.9143 ± 0.019
x2 = 0.6277	29.36 ± 0.51	28.17 ± 0.51	27.05 ± 0.51	25.97 ± 0.51	1.41 ± 0.029	1.089 ± 0.023	0.8992 ± 0.019	0.7523 ± 0.016
x2 = 0.7118	30.1 ± 0.51	28.9 ± 0.51	27.77 ± 0.51	26.7 ± 0.5	1.193 ± 0.025	0.9412 ± 0.02	0.804 ± 0.017	0.7006 ± 0.015
x2 = 0.7877	31.04 ± 0.51	29.85 ± 0.51	28.72 ± 0.5	27.66 ± 0.5	1.052 ± 0.022	0.8817 ± 0.019	0.765 ± 0.016	0.6768 ± 0.015
x2 = 0.8519	32.05 ± 0.51	30.88 ± 0.5	29.76 ± 0.5	28.7 ± 0.5	0.9693 ± 0.021	0.8339 ± 0.018	0.7497 ± 0.016	0.6694 ± 0.015
x2 = 0.9085	33.13 ± 0.5	31.98 ± 0.5	30.87 ± 0.5	29.84 ± 0.5	0.9042 ± 0.019	0.8153 ± 0.017	0.7484 ± 0.016	0.6782 ± 0.015
x2 = 0.9556	34.15 ± 0.5	33.03 ± 0.5	31.92 ± 0.5	30.9 ± 0.5	0.8603 ± 0.018	0.7921 ± 0.017	0.7395 ± 0.016	0.6802 ± 0.015
